In patent US11135203B2, “Forazolines, compositions thereof and uses thereof” (Wisconsin Alumni Research Foundation, priority 2013, dated 2021):

Legend:
Water solubility = assay type: physicochemical
Candida albicans K1 = assay: Neutropenic murine disseminated candidiasis model, kidney organism burden; assay type: in vivo; conditions: Candida albicans K1, single dose 2.5, 0.78 and 0.125 mg/kg, after 8 hours
Text: (§1) Animals. Six-week-old ICR Swiss specific-pathogen-free female mice weighing 23 to 27 g were used for all studies. Animals were maintained in accordance with the American Association for Accreditation of Laboratory Care criteria. Animal studies were approved by the University of Wisconsin Animal Care Committee.
Infection model. A neutropenic, murine, disseminated candidiasis model was used for the treatment studies. Mice were rendered neutropenic (polymorphonuclear cell counts of <100 mm^3) by injecting cyclophosphamide subcutaneously 4 days before infection (150 mg/kg of body weight) and 1 day before infection (100 mg/kg). Candida albicans K1 was subcultured on Sabouraud dextrose agar (SDA) 24 h prior to infection. The inocula were prepared by placing three to five colonies into 5 ml of sterile 0.15 M NaCl warmed to 35° C. The final inoculum was adjusted to 0.6 transmittance at 530 nm. Fungal counts of the inocula determined by viable counts on SDA were 5.63±0.38 log10 CFU/mL (mean±standard deviation).
Disseminated infection with C. albicans organisms was produced by injection of 0.1 ml of the inoculum via the lateral tail vein 2 h prior to the start of antifungal therapy. At the end of the study period (8 h), animals were sacrificed by CO2 asphyxiation. […] The results are expressed as the mean and standard deviation of the log10 CFU/kidney from three mice. […]

[1] = Toxic effects observed in treated mice of the candidiasis model; assay type: in vivo; conditions: neutropenic mice, 2.5, 0.78 and 0.125 mg/kg, 8 hours
Procedure: as §1
Drug Treatment. […] The intravenous dose was given by the lateral tail vein via a 200 μL infusion. The intraperitoneal dose was administered in 500 μL volume. Control mice were treated with saline. Groups of mice were sacrificed at the start of therapy and 8 hours after therapy for determination of organism burden in the kidney as described above.

[2] = tested on: Saccharomyces cerevisiae deletion mutant strains; assay: Chemical genomic profiling against deletion mutant yeast strains; assay type: cell-based; conditions: for sensitivity of mutant LEM3-Δ: chemical genomic profile of known antifungal agents
Procedure: This method has been used to explore the mechanism of action for bioactive compounds, including natural products. Forazoline A was screened against over four thousand deletion mutant yeast strains, genomic DNA was extracted, and mutant-specific DNA barcodes were amplified and sequenced by Illumina sequencing. Forazoline A sensitive and resistant mutants were determined by quantification of DNA-barcodes, which provided a chemical genomic profile used to evaluate the mechanism of action.

[3] = Synergy studies with amphotericin B (AMB); assay type: cell-based; conditions: combination with amphotericin B

CO[C@H]1[S+]([O-])C2=CC(=O)[C@](C)(O[C@H]3CC[C@H](N(C)C)[C@@H](C)O3)[C@@H](O)CCC(C)=C[C@@H]3[C@@H](C)[C@](C)(Cl)[C@@H](C[C@H]3O[C@H]3CC[C@H](N(C)C)[C@@H](C)O3)OC(=O)[C@@H]3CSC(=N3)[C@]1(C)N2 (some centres unmarked) [Forazoline A]
water solubility (Water solubility): about 5 mg/mL | reduction in organism burden compared to control mice (Candida albicans K1): 1.5+/−0.12 log10 cfu/kidney | toxic effects from the compound [1]: No toxic effects | gene enrichment of top sensitive mutant strains (P<0.0001) ([2]; GO: 0045332, P=0.0009, driven by LEM3 and FPK1 deletion mutants): significantly enriched for genes involved in phospholipid translocation | interaction when tested with AMB [3]: synergy

C[C@@H]1[C@H](O)[C@@H](C)/C=C/C=C/C=C/C=C/C=C/C=C/C=C/[C@H](O[C@@H]2O[C@H](C)[C@@H](O)[C@H](N)[C@@H]2O)C[C@@H]2O[C@](O)(C[C@@H](O)C[C@@H](O)[C@H](O)CC[C@@H](O)C[C@@H](O)CC(=O)O[C@H]1C)C[C@H](O)[C@H]2C(=O)O [amphotericin, amphotericin B]
sensitivity of mutant LEM3-Δ [2]: not among the most sensitive strains

CC[C@H](C)C[C@H](C)CCCCCCCCC(=O)N[C@H]1C[C@@H](O)[C@@H](NCCN)NC(=O)[C@@H]2[C@@H](O)CCN2C(=O)[C@H]([C@H](O)CCN)NC(=O)[C@H]([C@H](O)[C@@H](O)c2ccc(O)cc2)NC(=O)[C@@H]2C[C@@H](O)CN2C(=O)[C@H]([C@@H](C)O)NC1=O [caspofungin]
sensitivity of mutant LEM3-Δ [2]: not among the most sensitive strains

OC(Cn1cncn1)(Cn1cncn1)c1ccc(F)cc1F [fluconazole]
sensitivity of mutant LEM3-Δ [2]: not among the most sensitive strains
